# ChEMBL document CHEMBL1150070, “A novel cytotoxic macrolide, superstolide B, related to superstolide A, from the New Caledonian marine sponge Neosiphonia superstes” (J Nat Prod, 1994)
# What was measured:
# Format in all cases: functional, cell-based
# [1] = system: KB; test: Cytotoxicity against human KB cells
# [2] = system: P388; test: Cytotoxicity against mouse P388 cells
# [3] = Cytotoxicity against human NSCLC-N6-L16 cells
smiles,measurement,setting,value
CO[C@@H]1C[C@H](OC(N)=O)[C@@H]2C=C[C@@H]3/C=C(C)/C=C/[C@@H](C)[C@H](/C(C)=C/[C@@H](C)NC(C)=O)OC(=O)/C=C/C=C(C)\C=C\[C@]3(C)[C@@H]2C1 [SUPERSTOLIDE B],IC50,[1],5 ng/mL
same,IC50,[2],3 ng/mL
same,IC50,[3],39 ng/mL
